Source: article PMC3423582 (Bioorganic & medicinal chemistry letters, 2012)
“Also recorded” adds a separate entry of the source.

Assays:
[1] = test system: BJ-TERT/LT/ST/RAS^V12; assay: Cell death by photograph after 24 hours; type: cell-based; details: compound 27 30 µM, staurosporine 1 µM
[2] = test system: BJ-TERT; assay: Cell death by photograph after 24 hours; type: cell-based; details: compound 27 30 µM, staurosporine 1 µM
[3] = test system: seven cell lines (MCF7, HT-1080, U2OS, RKO, H1299, BJ-TERT, BJ-TERT/LT/ST/RAS^V12); assay: Lethality across the panel of seven cell lines; type: cell-based; details: summary of Table 1
[4] = test system: BJ-TERT/LT/ST/RAS^V12; details: read-out: EC50 (BJ-TERT/LT/ST/RAS^V12); cited from earlier work
[5] = test system: BJ-TERT; details: read-out: EC50 (BJ-TERT); cited from earlier work
[6] = test system: BJ-TERT/LT/ST/RAS^V12; assay: Lethality; type: cell-based; details: ratio of LC50 values
[7] = test system: caspase 3/7 in BJ-TERT/LT/ST/RAS^V12 cells; assay: Caspase 3/7 activation; type: cell-based; details: 28 hours, two-fold 14-point dilution series, Apo-ONE
[8] = test system: HT1080 cells; assay: Modulatory profiling: suppression of lethality by biologically active compounds; type: cell-based, human; details: z-VAD-fmk (45 µM) or Boc-D-fmk (50 µM)
[9] = test system: BJ-TERT/LT/ST/RAS^V12; assay: Kinetic analysis of induced cell death; type: cell-based; details: treated at the LC90 (30 µM)
[10] = test system: caspase 3/7 in BJ-TERT cells; assay: Caspase 3/7 activation; type: cell-based; details: 28 hours, two-fold 14-point dilution series, Apo-ONE

## CN[C@@H]1C[C@H]2O[C@@](C)([C@@H]1OC)n1c3ccccc3c3c4c(c5c6ccccc6n2c5c31)C(=O)NC4 [Staurosporine, reference compound]
[1]
  Cell death in BJ-TERT/LT/ST/RAS^V12 cells: induced cell death
[2]
  Cell death in BJ-TERT cells: induced cell death

## CC(CC1C(=O)N(C)C(=O)N(C)C1=O)C1c2c(c3ccccc3n2C(=O)OC(C)(C)C)CCN1C(=O)OC(C)(C)C (centres unmarked) [Compound 21]
[3]
  Lethality across the seven cell lines (in words): modest to good potency in six cell lines; also recorded: showed lethality in at least five cell lines

## CCOC(=O)C1c2[nH]c3ccccc3c2CCN1C(=O)OCc1ccccc1 (centres unmarked) [Compound 29]
[3]
  Lethality across the seven cell lines (in words): showed lethality in at least five cell lines

## CCOc1ccccc1-n1c(C(C)N2CCN(C(=O)COc3ccc(Cl)cc3)CC2)nc2ccccc2c1=O (centres unmarked) [erastin]
[4]
  EC50: 3.9 µM
[5]
  EC50: 23.7 µM

## CN1C(=O)C(Cc2nccc3c4ccccc4n(C)c23)C(=O)N(C)C1=O [Compound 8]
[3]
  Lethality across the seven cell lines (in words): slightly more active

## CC(C)(C)OC(=O)N1CCc2c(n(C(=O)OC(C)(C)C)c3ccccc23)C1CC=O (centres unmarked) [Compound 13]
[3]
  Lethality across the seven cell lines (in words): showed lethality in at least five cell lines

## COC(=O)c1ccc(C2c3[nH]c4ccccc4c3CC(C(=O)OC)N2C(=O)CCl)cc1 (centres unmarked) [RSL3]
[4]
  EC50: 0.365 µM
[5]
  EC50: 2.8 µM

## CN1C(=O)C(C2NC=Cc3c2[nH]c2ccccc32)C(=O)N(C)C1=O (centres unmarked) [Compound 2a, 5-(2,9-dihydro-1H-pyrido[3,4-b]indol-1-yl)-1,3-dimethylpyrimidine-2,4,6(1H,3H,5H)-trione]
[3]
  Lethality across the seven cell lines (in words): showed lethality in at least five cell lines
[6]
  Enhancement of lethality compared with compound 1 in BJ-TERT/LT/ST/RAS^V12: two-fold more lethal

## CCOC(=O)C1c2c(c3ccccc3n2C)CCN1C(=O)OC (centres unmarked) [Compound 27]
[7]
  Caspase 3/7 activation in BJ-TERT/LT/ST/RAS^V12: failed to induced caspase 3/7 activation
[3]
  Lethality across the seven cell lines (in words): showed lethality in at least five cell lines; also recorded: effective in inducing cell death in six out of seven cell lines
[8]
  Effect of caspase inhibitors on the compound's lethality: not inhibited
[6]
  Enhancement of lethality compared with compound 1 in BJ-TERT/LT/ST/RAS^V12: four fold enhancement
[1]
  Cell death in BJ-TERT/LT/ST/RAS^V12 cells: observed only in BJ-TERT/LT/ST/RAS^V12 cells
[9]
  Time at which compound started to kill cells: ≤ 12 h
  Time to complete cell death: ≤ 24 h
[2]
  Cell death in BJ-TERT cells: not BJ-TERT
[10]
  Caspase 3/7 activation in BJ-TERT: does not induce caspase activation

## CC(C=O)C1c2c(c3ccccc3n2C(=O)OC(C)(C)C)CCN1C(=O)OC(C)(C)C (centres unmarked) [Compound 20]
[3]
  Lethality across the seven cell lines (in words): showed lethality in at least five cell lines

## COC(OC)C1c2[nH]c3ccccc3c2CCN1C(=O)OCc1ccccc1 (centres unmarked) [Compound 34]
[3]
  Lethality across the seven cell lines (in words): showed lethality in at least five cell lines
